Measured values taken from the supplement of paper PMC10627819.

Experiments:
S. aureus Newman [1] = assay: fitness (endpoint OD595 vs no drug) (fraction); higher = more growth
How it was run: (§1)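 In 384-well plates at 37 °C, cultures began at OD595 0.01 in 30 µl, with 55 µl used for S. pneumoniae. OD595 readings every 30 min for 14 h were corrected by the first reading. Fitness divides the stationary-phase transition optical density by the robust mean of no-drug control wells. The result is capped at 1.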

S. aureus DSM 20231 [2] = assay: as above
How it was run: as §1

S. pneumoniae D39V [3] = assay: as above
How it was run: as §1

B. subtilis 168 [4] = assay: as above
How it was run: as §1

S. aureus Newman [5] = assay: Bliss interaction score (quartile over a dose matrix) (fitness difference); higher = more antagonism (negative = synergy)
How it was run: (§2)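 At entry into stationary phase, OD595 was recorded and divided by the robust mean of the no-drug wells on that plate, with any value above 1 set to 1. This gives the fitness measure used throughout. Single-drug fitness was inferred from combination data, and the Bliss score, observed minus product-expected fitness, is shown as quartiles across technical, biological and donor/recipient replicates.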

S. aureus DSM 20231 [6] = assay: as above
How it was run: as §2

S. pneumoniae D39V [7] = assay: as above
How it was run: as §2

B. subtilis 168 [8] = assay: as above
How it was run: as §2
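Throughout, for Bliss interaction score (quartile over a dose matrix): first quartile when negative (synergy) and third quartile when positive (antagonism).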

CCC[C@@H]1C[C@@H](C(=O)N[C@@H]([C@H]2O[C@H](SC)[C@H](O)[C@@H](O)[C@H]2O)[C@H](C)Cl)N(C)C1 [Clindamycin] + C[C@@H]1O[C@@H]1P(=O)(O)O [Fosfomycin]
Conditions | fitness
B. subtilis 168 [4], first compound 0.0625 µg/mL, partner 1.562 µg/mL | 0.493
B. subtilis 168 [4], first compound 0.0625 µg/mL, partner 3.124 µg/mL | 0.419
B. subtilis 168 [4], first compound 0.0625 µg/mL, partner 6.248 µg/mL | 0.208
B. subtilis 168 [4], first compound 0.125 µg/mL, partner 1.562 µg/mL | 0.311
B. subtilis 168 [4], first compound 0.125 µg/mL, partner 3.124 µg/mL | 0.234
B. subtilis 168 [4], first compound 0.125 µg/mL, partner 6.248 µg/mL | 0.129
B. subtilis 168 [4], first compound 0.25 µg/mL, partner 1.562 µg/mL | 0.226
B. subtilis 168 [4], first compound 0.25 µg/mL, partner 3.124 µg/mL | 0.183
B. subtilis 168 [4], first compound 0.25 µg/mL, partner 6.248 µg/mL | 0.095
S. aureus DSM 20231 [2], first compound 0.0312 µg/mL, partner 1.562 µg/mL | 0.292
S. aureus DSM 20231 [2], first compound 0.0312 µg/mL, partner 3.124 µg/mL | 0.104
S. aureus DSM 20231 [2], first compound 0.0625 µg/mL, partner 0.781 µg/mL | 0.122
S. aureus DSM 20231 [2], first compound 0.0625 µg/mL, partner 1.562 µg/mL | 0.0594
S. aureus DSM 20231 [2], first compound 0.0625 µg/mL, partner 3.124 µg/mL | 0.0236
S. aureus DSM 20231 [2], first compound 0.125 µg/mL, partner 0.781 µg/mL | 0.0473
S. aureus DSM 20231 [2], first compound 0.125 µg/mL, partner 1.562 µg/mL | 0.048
S. aureus DSM 20231 [2], first compound 0.125 µg/mL, partner 3.124 µg/mL | 0.0437
S. aureus Newman [1], first compound 0.0312 µg/mL, partner 0.781 µg/mL | 0.322
S. aureus Newman [1], first compound 0.0312 µg/mL, partner 1.562 µg/mL | 0.0838
S. aureus Newman [1], first compound 0.0312 µg/mL, partner 3.124 µg/mL | 0.0458
S. aureus Newman [1], first compound 0.0625 µg/mL, partner 0.781 µg/mL | 0.0719
S. aureus Newman [1], first compound 0.0625 µg/mL, partner 1.562 µg/mL | 0.0192
S. aureus Newman [1], first compound 0.0625 µg/mL, partner 3.124 µg/mL | 0.0091
S. aureus Newman [1], first compound 0.125 µg/mL, partner 0.781 µg/mL | 0.0513
S. aureus Newman [1], first compound 0.125 µg/mL, partner 1.562 µg/mL | 0.0428
S. aureus Newman [1], first compound 0.125 µg/mL, partner 3.124 µg/mL | 0.0521
S. pneumoniae D39V [3], first compound 0.0125 µg/mL, partner 1.25 µg/mL | 0.805
S. pneumoniae D39V [3], first compound 0.0125 µg/mL, partner 2.5 µg/mL | 0.752
S. pneumoniae D39V [3], first compound 0.0125 µg/mL, partner 5 µg/mL | 0.66
S. pneumoniae D39V [3], first compound 0.015 µg/mL, partner 1.25 µg/mL | 0.787
S. pneumoniae D39V [3], first compound 0.015 µg/mL, partner 2.5 µg/mL | 0.773
S. pneumoniae D39V [3], first compound 0.015 µg/mL, partner 5 µg/mL | 0.736
S. pneumoniae D39V [3], first compound 0.025 µg/mL, partner 1.25 µg/mL | 0.539
S. pneumoniae D39V [3], first compound 0.025 µg/mL, partner 2.5 µg/mL | 0.497
S. pneumoniae D39V [3], first compound 0.025 µg/mL, partner 5 µg/mL | 0.475
S. pneumoniae D39V [3], first compound 0.03 µg/mL, partner 1.25 µg/mL | 0.621
S. pneumoniae D39V [3], first compound 0.03 µg/mL, partner 2.5 µg/mL | 0.583
S. pneumoniae D39V [3], first compound 0.03 µg/mL, partner 5 µg/mL | 0.525
S. pneumoniae D39V [3], first compound 0.05 µg/mL, partner 1.25 µg/mL | 0.224
S. pneumoniae D39V [3], first compound 0.05 µg/mL, partner 2.5 µg/mL | 0.203
S. pneumoniae D39V [3], first compound 0.05 µg/mL, partner 5 µg/mL | 0.207
S. pneumoniae D39V [3], first compound 0.06 µg/mL, partner 1.25 µg/mL | 0.368
S. pneumoniae D39V [3], first compound 0.06 µg/mL, partner 2.5 µg/mL | 0.355
S. pneumoniae D39V [3], first compound 0.06 µg/mL, partner 5 µg/mL | 0.291

fitness, B. subtilis 168 [4], one replicate
Conditions | first compound 0.0039 µg/mL | first compound 0.0078 µg/mL | first compound 0.0156 µg/mL
partner 1.562 µg/mL | 0.7 | 0.637 | 0.556
partner 3.124 µg/mL | 0.633 | 0.564 | 0.51
partner 6.248 µg/mL | 0.55 | 0.549 | 0.45

Conditions | Bliss interaction score
B. subtilis 168 [8] | 0.0321
S. aureus DSM 20231 [6] | -0.075
S. aureus Newman [5] | -0.253
S. pneumoniae D39V [7] | 0.11

CCC[C@@H]1C[C@@H](C(=O)N[C@@H]([C@H]2O[C@H](SC)[C@H](O)[C@@H](O)[C@H]2O)[C@H](C)Cl)N(C)C1 [Clindamycin] + C[n+]1ccc(-c2cc[n+](C)cc2)cc1 [Paraquat]
fitness
Conditions | partner 1.25 µg/mL | partner 1.5 µg/mL | partner 2.5 µg/mL | partner 3 µg/mL | partner 5 µg/mL | partner 6 µg/mL
B. subtilis 168 [4], first compound 0.0625 µg/mL | 0.607 | – | 0.513 | – | 0.512 | –
B. subtilis 168 [4], first compound 0.125 µg/mL | 0.392 | – | 0.366 | – | 0.359 | –
B. subtilis 168 [4], first compound 0.25 µg/mL | 0.363 | – | 0.352 | – | 0.281 | –
S. aureus DSM 20231 [2], first compound 0.0625 µg/mL | 0.181 | – | 0.192 | – | 0.14 | –
S. aureus DSM 20231 [2], first compound 0.125 µg/mL | 0.0613 | – | 0.113 | – | 0.0771 | –
S. aureus Newman [1], first compound 0.0312 µg/mL | 0.607 | – | 0.57 | – | 0.516 | –
S. aureus Newman [1], first compound 0.0625 µg/mL | 0.271 | – | 0.241 | – | 0.207 | –
S. aureus Newman [1], first compound 0.125 µg/mL | 0.0526 | – | 0.0427 | – | 0.0913 | –
S. pneumoniae D39V [3], first compound 0.0125 µg/mL | – | 0.744 | – | 0.749 | – | 0.733
S. pneumoniae D39V [3], first compound 0.025 µg/mL | – | 0.489 | – | 0.482 | – | 0.458
S. pneumoniae D39V [3], first compound 0.05 µg/mL | – | 0.24 | – | 0.228 | – | 0.195

fitness, one replicate
Conditions | first compound 0.0039 µg/mL | first compound 0.0078 µg/mL | first compound 0.015 µg/mL | first compound 0.0156 µg/mL | first compound 0.03 µg/mL | first compound 0.06 µg/mL
B. subtilis 168 [4], partner 1.25 µg/mL | ≥ 1 | 0.914 | – | 0.847 | – | –
B. subtilis 168 [4], partner 2.5 µg/mL | 0.958 | 0.846 | – | 0.857 | – | –
B. subtilis 168 [4], partner 5 µg/mL | 0.972 | 0.873 | – | 0.83 | – | –
S. pneumoniae D39V [3], partner 1.5 µg/mL | – | – | 0.934 | – | 0.85 | 0.692
S. pneumoniae D39V [3], partner 3 µg/mL | – | – | 0.949 | – | 0.92 | 0.763
S. pneumoniae D39V [3], partner 6 µg/mL | – | – | ≥ 1 | – | 0.914 | 0.805

Conditions | Bliss interaction score
B. subtilis 168 [8] | 0.0483
S. aureus DSM 20231 [6] | -0.0477
S. aureus Newman [5] | -0.112
S. pneumoniae D39V [7] | 0.0554
